Measurements from patent US5013841A, “Oxo quinoline derivatives” (Dainippon Pharmaceutical Co., Ltd., priority 1987, dated 1991).
Values after ≈ are worked out from the molar mass of the structure shown. Where two headings read alike, the source gives them in different places.

Assays:
C. Trachomatics G/ur 931 = assay: Antichlamydia activity (inclusion bodies in McCoy cells); assay type: cell-based; conditions: 36° C., 40-48 h, calculated for free base, read-out: minimum inhibitory concentration (MIC)
Description: (§1) Minimum inhibitory concentrations (MIC) were determined as follows. McCoy cells were freshly cultured in Eagle's minimum essential medium (EMEM) (Flow) supplemented with 4% fetal bovine serum and 0.03% L-glutamine. The cells were trypsinized and suspended in the same culture medium at a cell concentration of 1-2×10^5 cells/ml. One ml of the cell suspension was pipetted into flat-bottomed plastic tubes (14 mm in diameter) containing a cover slip (12 mm in diameter). The tubes were incubated in 5% CO2 -air at 36° C. for 20 hours. One-half ml of a chlamydial suspension (ca. 1-4×10^3 inclusion body forming units) was added into each tube, which was then centrifuged at 1500×g for 60 minutes. The tubes were incubated for 1 hour at 36° C. The medium was changed with 1 ml of EMEM supplemented with 8% fetal bovine serum, 0.03% L-blutamine, 1μg/ml cycloheximide and 0.5% glucose, and containing drugs at various concentrations. After further incubation at 36° C. for 40-48 hours, the cells on the cover glasses were stained with the Giemsa's solution. […] The MIC was defined as the lowest drug concentration where there were no inclusion bodies in all the cells on the cover slip.

[1] = system: C. Trachomatics G/ur 1467; assay: as above; assay type: cell-based; conditions: 36° C., 40-48 h, calculated for free base, read-out: minimum inhibitory concentration (MIC)
Description: as §1

[2] = system: C. Trachomatics G/ur 1483; assay: as above; assay type: cell-based; conditions: 36° C., 40-48 h, calculated for free base, read-out: minimum inhibitory concentration (MIC)
Description: as §1

[3] = system: C. Trachomatics G/ur 1317; assay: as above; assay type: cell-based; conditions: 36° C., 40-48 h, calculated for free base, read-out: minimum inhibitory concentration (MIC)
Description: as §1

M. orale CH-19299 = assay: Antimycoplasma activity (twofold agar dilution method); assay type: cell-based; conditions: 48 h, read-out: minimum inhibitory concentration (MIC)
Description: (§2) The figures in the table show minimum inhibitory concentrations (MIC), (μg/ml), calculated for free base.
(§3) Minimum inhibitory concentrations (MIC) were determined by the twofold agar dilution method. The media used were Chanock broth and agar PPLD broth and agar (Difco) supplemented with 20% horse serum and 10% fresh yeast extract). A 2-3 day broth culture of organisms was diluted with Chanock broth to a cell density of about 10^6 cells/ml. One loopful (about […]) of the organism dilution was spotted onto 10-ml drug containing Chanock agar in petri dishes using a multiple inoculator (Cathra International). The petri dishes were incubated at 37° C. for 7 and 2 days for Mycoplasma pneumoniae and other Mycoplasma spp. respectively. Incubation was performed anaerobically using the Gaspak anaerobic system (BBL) for M. buccale, M. fermentans, M. hominis, M. orale and M. salivarium, and aerobically for other Mycoplasma spp. The MIC was defined as the lowest compound concentration at which no growth of organism was detected.

M. hominis PG-21 = assay: as above; assay type: cell-based; conditions: Metamycoplasma hominis, PG21, 48 h, read-out: minimum inhibitory concentration (MIC)
Description: as §2, §3

M. fermentans PG-18 = assay: as above; assay type: cell-based; conditions: Mycoplasmopsis fermentans, PG18, 48 h, read-out: minimum inhibitory concentration (MIC)
Description: as §2, §3

M. hyorhinis BST-7 = assay: as above; assay type: cell-based; conditions: Mesomycoplasma hyorhinis, BST7, 48 h, read-out: minimum inhibitory concentration (MIC)
Description: as §2, §3

M. arginini G-230 = assay: as above; assay type: cell-based; conditions: 48 h, read-out: minimum inhibitory concentration (MIC)
Description: as §2, §3

M. buccale CH-20249 = assay: as above; assay type: cell-based; conditions: 48 h, read-out: minimum inhibitory concentration (MIC)
Description: as §2, §3

M. salivarium PG-20 = assay: as above; assay type: cell-based; conditions: 48 h, read-out: minimum inhibitory concentration (MIC)
Description: as §2, §3

A. laidlawii PG-8 = assay: as above; assay type: cell-based; conditions: Acholeplasma laidlawii, PG8, 48 h, read-out: minimum inhibitory concentration (MIC)
Description: as §2, §3

M. pneumoniae Mac = assay: as above; assay type: cell-based, Mycoplasma pneumoniae; conditions: Mycoplasmoides pneumoniae, 168 h, read-out: minimum inhibitory concentration (MIC)
Description: as §2, §3

[4] = system: Staphylococcus aureus 50774; assay type: in vivo, Staphylococcus aureus (male mice, Std-ddY); conditions: Staphylococcus aureus, 50774, po, 336 h, read-out: median effective dose (ED50)
Excerpt: Staphylococcus aureus 50774
Intravenous infection with 5×10^8 cells per mouse suspended in saline.
For 7 days for other organisms.

S. pyogenes Cook = assay: In vitro antibacterial activity (twofold agar-dilution method); assay type: cell-based; conditions: Streptococcus pyogenes, 20 h, 37° C., calculated for free base, read-out: minimum inhibitory concentration (MIC)
Description: (§4) The figures in the table show minimum inhibitory concentrations (MIC) (μg/ml), calculated for free base. The minimum inhibitory concentration was determined by the twofold agar-dilution method, which was recommended by Japan Society of Chemotherapy (Chemotherapy, 29(1), 76(1981)), using Muller-Hinton agar. One loopful of an overnight culture of test organisms in Mueller-Hinton broth was inoculated onto 10-ml drug-containing agar layers in petri dishes. Bacterial inocula contained approximately 10^6 colonyl-formingunits. Bacterial growth was observed after 20-hour incubation at 37° C. The MIC was defined as the lowest drug concentration which prevented visible bacterial growth.

S. epidermidis No. 8 = assay: as above; assay type: cell-based; conditions: Staphylococcus epidermidis, NO.8, 20 h, read-out: minimum inhibitory concentration (MIC)
Description: as §4

S. aureus Terajima = assay: as above; assay type: cell-based; conditions: Staphylococcus aureus, 20 h, read-out: minimum inhibitory concentration (MIC)
Description: as §4

E. coli P-5101 = assay: as above; assay type: cell-based; conditions: Escherichia coli, P5101, 20 h, read-out: minimum inhibitory concentration (MIC)
Description: as §4

S. aureus No. 80 = assay: as above; assay type: cell-based; conditions: Staphylococcus aureus, NO.80, 20 h, read-out: minimum inhibitory concentration (MIC)
Description: as §4

E. coli NIHJ JC-2 = assay: as above; assay type: cell-based; conditions: Escherichia coli, NIHJJC2, 20 h, read-out: minimum inhibitory concentration (MIC)
Description: as §4

P. Aeruginosa 12 = assay: as above; assay type: cell-based; conditions: Pseudomonas aeruginosa, 20 h, read-out: minimum inhibitory concentration (MIC)
Description: as §4

S. marcescens IFO 3736 = assay: as above; assay type: cell-based; conditions: Serratia marcescens, IFO3736, 20 h, read-out: minimum inhibitory concentration (MIC)
Description: as §4

S. aureus 209 JC-1 = assay: as above; assay type: cell-based; conditions: Staphylococcus aureus, 209JC1, 20 h, read-out: minimum inhibitory concentration (MIC)
Description: as §4

Flavobacterium sp P-7201 = assay: as above; assay type: cell-based; conditions: Flavobacterium, P7201, 20 h, read-out: minimum inhibitory concentration (MIC)
Description: as §4

[5] = system: Streptococcus pneumoniae 1 Neufeld; assay type: in vivo, Streptococcus pneumoniae (male mice, Std-ddY); conditions: 336 h, read-out: median effective dose (ED50)
[6] = system: Streptococcus pyogenes A65; conditions: A65, in Mus musculus, po, 168 h, read-out: median effective dose (ED50)
[7] = Urinary excretion in mice (thin-layer cup-plated method, Escherichia coli Kp indicator); assay type: in vivo; conditions: mouse, urine, oral, 5 mg/kg, read-out: Urinary recovery for 24 hours
Description: A suspension containing each of compounds was orally administered to mice at a dose of 5 mg/kg. Urine was collected over a period of 24 hours after adminstration. The levels of the compounds in urine were determined by the thin-layer cup-plated method using Escherichia coli Kp as an indicator organism.

O=C(O)c1cn(C2CC2)c2cc(N3CCNCC3)c(F)cc2c1=O [Compound A, reference compound]
MIC (C. Trachomatics G/ur 931): 1 µg/mL (≈ 3.02 µM)
MIC [1]: 1 µg/mL (≈ 3.02 µM)
MIC [2]: 1 µg/mL (≈ 3.02 µM)
MIC [3]: 2 µg/mL (≈ 6.04 µM)
MIC (M. orale CH-19299): 1.56 µg/mL (≈ 4.71 µM)
MIC (M. hominis PG-21): 1.56 µg/mL (≈ 4.71 µM)
MIC (M. fermentans PG-18): 0.2 µg/mL (≈ 0.604 µM)
MIC (M. hyorhinis BST-7): 0.39 µg/mL (≈ 1.18 µM)
MIC (M. arginini G-230): 0.39 µg/mL (≈ 1.18 µM)
MIC (M. buccale CH-20249): 0.39 µg/mL (≈ 1.18 µM)
MIC (M. salivarium PG-20): 3.13 µg/mL (≈ 9.45 µM)
MIC (A. laidlawii PG-8): 0.39 µg/mL (≈ 1.18 µM)
MIC (M. pneumoniae Mac): 0.78 µg/mL (≈ 2.35 µM)
ED50 [4]: 8.24 mg/kg
MIC (S. pyogenes Cook): 0.2 µg/mL (≈ 0.604 µM)
MIC (S. epidermidis No. 8): 0.1 µg/mL (≈ 0.302 µM)
MIC (S. aureus Terajima): 0.1 µg/mL (≈ 0.302 µM)
MIC (E. coli P-5101): 0.0063 µg/mL (≈ 0.019 µM)
MIC (S. aureus No. 80): 0.39 µg/mL (≈ 1.18 µM)
MIC (E. coli NIHJ JC-2): 0.0063 µg/mL (≈ 0.019 µM)
MIC (P. Aeruginosa 12): 0.1 µg/mL (≈ 0.302 µM)
MIC (S. marcescens IFO 3736): 0.05 µg/mL (≈ 0.151 µM)
MIC (S. aureus 209 JC-1): 0.1 µg/mL (≈ 0.302 µM)
MIC (Flavobacterium sp P-7201): 0.39 µg/mL (≈ 1.18 µM)
ED50 ([5]; po): 31.3 mg/kg

Nc1c(F)c(N2CCNCC2)c(F)c2c1c(=O)c(C(=O)O)cn2C1CC1 [Compound B, 5-amino-1-cyclopropyl-6,8-difluoro-7-(1-piperazinyl)-1,4-dihydro-4-oxoquinoline-3-carboxylic acid, reference compound]
MIC (S. pyogenes Cook): 0.2 µg/mL (≈ 0.549 µM)
MIC (S. epidermidis No. 8): 0.05 µg/mL (≈ 0.137 µM)
MIC (S. aureus Terajima; S. aureus Terajima, agar dilution, 37° C., calculated for free base): 0.025 µg/mL (≈ 0.0686 µM)
MIC (E. coli P-5101): 0.0063 µg/mL (≈ 0.0173 µM)
MIC (S. aureus No. 80): 0.05 µg/mL (≈ 0.137 µM)
MIC (E. coli NIHJ JC-2): 0.0063 µg/mL (≈ 0.0173 µM)
MIC (P. Aeruginosa 12): 0.1 µg/mL (≈ 0.274 µM)
MIC (S. marcescens IFO 3736): 0.1 µg/mL (≈ 0.274 µM)
MIC (S. aureus 209 JC-1): 0.05 µg/mL (≈ 0.137 µM)
MIC (Flavobacterium sp P-7201): 0.1 µg/mL (≈ 0.274 µM)
ED50 ([5]; mice, oral, four times (immediately, 6, 24 and 30 h after intraperitoneal infection), 14 days, calculated for free base): 20.8 mg/kg
ED50 [6]: > 50 mg/kg

CC1CN(c2c(F)c(N)c3c(=O)c(C(=O)O)cn(C4CC4)c3c2F)CC(C)N1 (centres unmarked) [Compound C, 5-amino-1-cyclopropyl-6,8-difluoro-7-(3,5-dimethyl-1-piperazinyl)-1,4-dihydro-4-oxoquinoline-3-carboxylic acid, reference compound]
dose excreted at 24 h [7]: 4.51%
